Structures can show the parent of a compound that is named as a salt.
Biological target: Arachidonate 5-lipoxygenase (Rattus norvegicus)
Assay: Evaluated for inhibitory activity against RBL-1 cell 5-lipoxygenase in rat

Row | Compound | IC50 [nM]
1 | Cc1cc(OCCCCCCCCN2CCN(C(c3ccccc3)c3ccccc3)CC2)c(C)c(C)c1O [4-[8-(4-Benzhydryl-piperazin-1-yl)-octyloxy]-2,3,6-trimethyl-phenol; hydrochloride] | 1060
2 | Cc1cc(OCCCN2CCN(C(c3ccccc3)c3ccccc3)CC2)c(C)c(C)c1O [4-[3-(4-Benzhydryl-piperazin-1-yl)-propoxy]-2,3,6-trimethyl-phenol; hydrochloride] | 426
3 | Cc1cc(OCCCCN2CCN(C(c3ccccc3)c3ccccc3)CC2)c(C)c(C)c1O [4-[4-(4-Benzhydryl-piperazin-1-yl)-butoxy]-2,3,6-trimethyl-phenol; hydrochloride] | 358
4 | Cc1cc(OCCN2CCN(C(c3ccccc3)c3ccccc3)CC2)c(C)c(C)c1O [4-[2-(4-Benzhydryl-piperazin-1-yl)-ethoxy]-2,3,6-trimethyl-phenol; hydrochloride] | 820
